{"source": "ChEMBL document CHEMBL1126512", "about": "“Synthesis and antitumor evaluation of water soluble taxol phosphates” (Bioorg Med Chem Lett, 1993)", "key": {"Mus musculus [1]": {"tested_on": "Mus musculus", "assay": "Antitumor activity against M109 tumor murine lung carcinoma infected mice after ip administration using DMSO an saline as vehicle at a dose of 30 mg/kg/inj", "format": "functional", "details": "route intraperitoneal"}, "Mus musculus [2]": {"tested_on": "Mus musculus", "assay": "Antitumor activity against M109 tumor murine lung carcinoma infected mice after ip administration using DMSO an water as vehicle at a dose of 25 mg/kg/inj", "format": "functional", "details": "route intraperitoneal"}, "Mus musculus [3]": {"tested_on": "Mus musculus", "assay": "Antitumor activity against M109 tumor murine lung carcinoma infected mice after ip administration using DMSO an saline as vehicle at a dose of 50 mg/kg/inj", "format": "functional", "details": "route intraperitoneal"}, "[4]": {"assay": "Solubility was determined; value ranges from 6-7", "format": "physicochemical"}, "Mus musculus [5]": {"tested_on": "Mus musculus", "assay": "Antitumor activity against M109 tumor murine lung carcinoma infected mice after ip administration using DMSO an water as vehicle at a dose of 50 mg/kg/inj", "format": "functional", "details": "route intraperitoneal"}, "[6]": {"assay": "Solubility was determined", "format": "physicochemical"}, "Mus musculus [7]": {"tested_on": "Mus musculus", "assay": "Antitumor activity against M109 tumor murine lung carcinoma infected mice after ip administration using DMSO an saline as vehicle at a dose of 25 mg/kg/inj; 1/6 mice cured", "format": "functional", "details": "route intraperitoneal"}, "Mus musculus [8]": {"tested_on": "Mus musculus", "assay": "Antitumor activity against M109 tumor murine lung carcinoma infected mice after ip administration using DMSO an saline as vehicle at a dose of 10 mg/kg/inj", "format": "functional", "details": "route intraperitoneal"}, "Mus musculus [9]": {"tested_on": "Mus musculus", "assay": "Antitumor activity against M109 tumor murine lung carcinoma infected mice after ip administration using DMSO an water as vehicle at a dose of 10 mg/kg/inj", "format": "functional", "details": "route intraperitoneal"}, "Mus musculus [10]": {"tested_on": "Mus musculus", "assay": "Antitumor activity against M109 tumor murine lung carcinoma infected mice after ip administration using DMSO an water as vehicle at a dose of 25 mg/kg/inj; 1/6 mice cured", "format": "functional", "details": "route intraperitoneal"}, "Mus musculus [11]": {"tested_on": "Mus musculus", "assay": "Antitumor activity against M109 tumor murine lung carcinoma infected mice after ip administration using DMSO an water as vehicle at a dose of 30 mg/kg/inj", "format": "functional", "details": "route intraperitoneal"}}, "data": [{"smiles": "CC(=O)O[C@H]1C(=O)[C@]2(C)[C@@H](OP(=O)([O-])[O-])C[C@H]3OC[C@@]3(OC(C)=O)[C@H]2[C@H](OC(=O)c2ccccc2)[C@]2(O)C[C@H](OC(=O)[C@H](OP(=O)([O-])[O-])[C@@H](NC(=O)c3ccccc3)c3ccccc3)C(C)=C1C2(C)C.[Na+].[Na+].[Na+].[Na+]", "values": [{"measurement": "Max T/C", "setting": "Mus musculus [1]", "result": 103}]}, {"smiles": "CC(=O)O[C@H]1C(=O)[C@@]2(C)[C@H]([C@H](OC(=O)c3ccccc3)[C@]3(O)C[C@H](OC(=O)[C@H](OP(=O)([O-])[O-])[C@@H](NC(=O)c4ccccc4)c4ccccc4)C(C)=C1C3(C)C)[C@]1(OC(C)=O)CO[C@@H]1C[C@@H]2O.[Na+].[Na+]", "values": [{"measurement": "Max T/C", "setting": "Mus musculus [2]", "result": 140}]}, {"smiles": "CC(=O)O[C@H]1C(=O)[C@@]2(C)[C@H]([C@H](OC(=O)c3ccccc3)[C@]3(O)C[C@H](OC(=O)[C@H](OP(=O)(OCc4ccccc4)OCc4ccccc4)[C@@H](NC(=O)c4ccccc4)c4ccccc4)C(C)=C1C3(C)C)[C@]1(OC(C)=O)CO[C@@H]1C[C@@H]2O", "values": [{"measurement": "Max T/C", "setting": "Mus musculus [3]", "result": 107}]}, {"smiles": "CC(=O)O[C@@]12CO[C@@H]1C[C@H](O)[C@@]1(C)C(=O)[C@H](O)C3=C(C)[C@@H](OC(=O)[C@H](O)[C@@H](NC(=O)OC(C)(C)C)c4ccccc4)C[C@@](O)([C@@H](OC(=O)c4ccccc4)[C@H]21)C3(C)C.O.O.O", "note": "[DOCETAXEL]", "values": [{"measurement": "solubility", "setting": "[4]", "result": 6, "unit": "µg/mL"}]}, {"smiles": "CC(=O)O[C@H]1C(=O)[C@@]2(C)[C@H]([C@H](OC(=O)c3ccccc3)[C@]3(O)C[C@H](OC(=O)[C@H](O)[C@@H](NC(=O)c4ccccc4)c4ccccc4)C(C)=C1C3(C)C)[C@]1(OC(C)=O)CO[C@@H]1C[C@@H]2O", "note": "[PACLITAXEL]", "values": [{"measurement": "Max T/C", "setting": "Mus musculus [5]", "result": 270}, {"measurement": "Max T/C", "setting": "Mus musculus [3]", "result": 270}, {"measurement": "solubility", "setting": "[6]", "result": 0.25, "unit": "µg/mL"}, {"measurement": "Max T/C", "setting": "Mus musculus [7]", "result": 240}, {"measurement": "Max T/C", "setting": "Mus musculus [8]", "result": 190}, {"measurement": "Max T/C", "setting": "Mus musculus [9]", "result": 190}, {"measurement": "Max T/C", "setting": "Mus musculus [10]", "result": 240}]}, {"smiles": "CC(=O)O[C@H]1C(=O)[C@]2(C)[C@@H](OP(=O)([O-])[O-])C[C@H]3OC[C@@]3(OC(C)=O)[C@H]2[C@H](OC(=O)c2ccccc2)[C@]2(O)C[C@H](OC(=O)[C@H](O)[C@@H](NC(=O)c3ccccc3)c3ccccc3)C(C)=C1C2(C)C.[Na+].[Na+]", "values": [{"measurement": "Max T/C", "setting": "Mus musculus [11]", "result": 123}]}]}
